Structures can show the parent of a compound that is named as a salt. Where only a bound is given, the exact number is not on record here.

The first assay addresses T1, human vasopressin V1b receptor (Homo sapiens, UniProt P47901).
T1 construct: expressed in transfected cells; host or cells: CHO-K1 (cell line hV1b-3H2_CHO), membrane preparation
T1 sequence (P47901 1-424): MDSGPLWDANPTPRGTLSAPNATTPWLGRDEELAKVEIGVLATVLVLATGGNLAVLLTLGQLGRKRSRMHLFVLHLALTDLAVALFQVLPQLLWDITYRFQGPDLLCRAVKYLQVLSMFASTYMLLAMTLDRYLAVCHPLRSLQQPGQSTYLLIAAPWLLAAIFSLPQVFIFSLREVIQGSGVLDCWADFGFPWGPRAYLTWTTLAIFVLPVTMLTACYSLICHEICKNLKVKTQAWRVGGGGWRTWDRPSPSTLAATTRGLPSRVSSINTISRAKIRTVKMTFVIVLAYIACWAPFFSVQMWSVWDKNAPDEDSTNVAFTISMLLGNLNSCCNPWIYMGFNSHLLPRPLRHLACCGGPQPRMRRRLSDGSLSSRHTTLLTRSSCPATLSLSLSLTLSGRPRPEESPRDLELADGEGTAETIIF
Put plainly: Vasopressin V1b receptor binding assay. To be noted: membranes from CHO-K1 cells with stably expressed human V1b receptors, displacement of 1.5 nM 3H-AVP. A digest of the protocol: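 Membranes were incubated with radioligand for 60 min at room temperature in 50 mM Tris, 10 mM MgCl2, 0.1% BSA, pH 7.4, with 2% DMSO final. Nonspecific binding was defined with 1 uM AVP. Bound ligand was collected by GF/B filtration and counted by scintillation, and binding parameters were derived by nonlinear regression.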
As usually defined, the Ki is a dissociation constant, usually derived from enzyme kinetics or from competition with a known ligand. `COc1ccc(S(=O)(=O)N2C(=O)C(c3ccc(CN4CCCC4)cc3OC)(N3CCC[C@H]3C(=O)N(C)C)c3cc(Cl)ccc32)cc1` (single isomer, unassigned) [Example 2] gave a Ki of under 1 nM. In the case of `COc1ccc(CN2CCN(C)CC2)cc1C1(N2CCC[C@H]2C(=O)N(C)C)C(=O)N(S(=O)(=O)c2ccc(C#N)cc2)c2ccc(Cl)cc21` (stereo partly drawn) [Example 97, (S)-1-{5-Chloro-1-(4-cyanobenzenesulfonyl)-3-[2-methoxy-5-(4-methylpiperazin-1-yl-methyl)phenyl]-2-oxo-2,3-dihydro-1H-indol-3-yl}pyrrolidine-2-carboxylic acid dimethylamide, trifluoroacetic acid salt], the inhibition constant Ki was under 1 nM. Still for that read-out and setting: the same measure for `COc1ccc(CN(C)C)cc1C1(N2CCC[C@H]2C(=O)N(C)C)C(=O)N(S(=O)(=O)c2ccc(F)cc2)c2ccc(Cl)cc21` (stereo partly drawn) [Example 98, (S)-1-[5-Chloro-3-(5-dimethylaminomethyl-2-methoxyphenyl)-1-(4-fluorobenzene-sulfonyl)-2-oxo-2,3-dihydro-1H-indol-3-yl]pyrrolidine-2-dimethylcarboxamide, trifluoroacetic acid salt]: 1 to 10 nM; for `COc1cc(CN2CCNCC2)ccc1C1(N2CCC[C@H]2C(=O)N(C)C)C(=O)N(S(=O)(=O)c2ccc(C#N)cc2)c2ccc(Cl)cc21` (stereo partly drawn) [Example 99, (S)-1-[5-Chloro-1-(4-cyanobenzenesulfonyl)-3-(2-methoxy-4-piperazin-1-ylmethyl-phenyl)-2-oxo-2,3-dihydro-1H-indol-3-yl]pyrrolidine-2-dimethylcarboxamide, trifluoroacetic acid salt]: under 1 nM.

The molecule `CCCNCc1ccc(OC)c(C2(N3CCC[C@H]3C(=O)N(C)C)C(=O)N(S(=O)(=O)c3ccc(C#N)cc3)c3ccc(Cl)cc32)c1` (stereo partly drawn) [Example 100, (S)-1-[5-Chloro-1-(4-cyanobenzenesulfonyl)-3-(2-methoxy-5-propylaminomethyl-phenyl)-2-oxo-2,3-dihydro-1H-indol-3-yl]pyrrolidine-2-dimethylcarboxamide, trifluoroacetic acid salt] registered an inhibition constant (Ki) of under 1 nM. As for `COc1ccc(CNC(C)C)cc1C1(N2CCC[C@H]2C(=O)N(C)C)C(=O)N(S(=O)(=O)c2ccc(C#N)cc2)c2ccc(Cl)cc21` (stereo partly drawn) [Example 101, (S)-1-[5-Chloro-1-(4-cyanobenzenesulfonyl)-3-(5-isopropylaminomethyl-2-methoxy-phenyl)-2-oxo-2,3-dihydro-1H-indol-3-yl]pyrrolidine-2-dimethylcarboxamide, trifluoroacetic acid salt], the Ki is under 1 nM. `CNCc1ccc(OC)c(C2(N3CCC[C@H]3C(=O)N(C)C)C(=O)N(S(=O)(=O)c3ccc(C#N)cc3)c3ccc(Cl)cc32)c1` (stereo partly drawn) [Example 102, (S)-1-[5-Chloro-1-(4-cyanobenzenesulfonyl)-3-(2-methoxy-5-methylaminomethyl-phenyl)-2-oxo-2,3-dihydro-1H-indol-3-yl]pyrrolidine-2-dimethylcarboxamide, trifluoroacetic acid salt] came in with a Ki of 1 to 10 nM. On the same count and under the same terms, under “(S)-1-[3-(4-Aminomethyl-2-methoxyphenyl)-5-chloro-1-(4-cyanobenzenesulfonyl)-2-oxo-2,3-dihydro-1H-indol-3-yl]pyrrolidine-2-dimethylcarboxamide, trifluoroacetic acid salt [Example 76]” stands 1 to 10 nM; under “(S)-1-[3-(4-Aminomethyl-2-methoxyphenyl)-5-chloro-1-(4-fluorobenzenesulfonyl)-2-oxo-2,3-dihydro-1H-indol-3-yl]pyrrolidine-2-dimethylcarboxamide, trifluoroacetic acid salt [Example 75]”, 10 to 100 nM; under “(S)-2-({5-Chloro-1-(2,4-dimethoxybenzenesulfonyl)-3-[2-methoxy-4-(4-methyl-piperazin-1-ylmethyl)phenyl]-2-oxo-2,3-dihydro-1H-indol-3-yl}methylamino)-N,N-dimethyl-propionamide [Example 15]”, under 1 nM. Same read-out and setting: under “(S)-2-{[5-Chloro-1-(2,4-dimethoxybenzenesulfonyl)-3-(4-dimethylaminomethyl-2-methoxyphenyl)-2-oxo-2,3-dihydro-1H-indol-3-yl]methylamino}-N,N-dimethyl-propionamide [Example 13]” stands 1 to 10 nM.

A further assay concerns the target T2, human V1b receptor (Homo sapiens, UniProt P47901).
T2 construct: expressed in transfected cells; host or cells: CHO-K1
T2 sequence (P47901 1-424): T1 sequence (P47901 1-424)
Put plainly: Effect on vasopressin-induced calcium increase in cells having a cloned human vasopressin receptor. The format is cell-based. The note with it: CHO-K1 cells stably transfected with human V1b receptor, Arg-vasopressin 10^-8 M, FLIPR calcium.
Procedure: Effect on Vasopressin-induced Calcium Increase in Cells Having a Cloned Human Vasopressin Receptor The functional activity of the test substances was investigated on CHO-K1 cells which were stably transfected with the human V1b receptor. 50 000 cells were seeded in each well of a microtiter plate with 96 wells and incubated in culture medium in a saturated water vapor atmosphere with 5% CO2 at 37° C. overnight. The culture medium consisted of DMEM/Nut Mix F12 with Glutamax I (from Invitrogen), 10% fetal calf serum, 100 units/ml penicillin, 100 μg/ml streptomycin and 800 μg/ml Geneticin. The following day, the cells were washed with culture medium and loaded with a fluorescent dye for calcium in accordance with the manufacturer's statements (Ca^++-Plus-Assay Kit, Molecular Devices). The cells were loaded in the presence of probenzide (1 vol %). The test substances were diluted with culture medium (final concentration 10^−10 to 10^−5M) and incubated with the dye-loaded cells at room temperature for 15 minutes. The Arg-vasopressin (10^−8M) was then added and the maximum fluorescence signal was determined using a FLIPR-96 measuring instrument (Molecular Devices). Concentration-effect plots were constructed using nonlinear regression algorithms (GraphPad Prism 3.0). Kb values were calculated from IC50 values by the method of Cheng and Prusoff (Kb=IC50/1+L/EC50).
On to `COc1ccc(S(=O)(=O)N2C(=O)C(c3ccc(CN4CCCC4)cc3OC)(N3CCC[C@H]3C(=O)N(C)C)c3cc(Cl)ccc32)cc1` (single isomer, unassigned) [Example 2], for which the “functional antagonist of the human vasopressin V1b receptor” value is reported as “functional antagonist”.

The values are drawn from patent US8691815B2, “Substituted oxindole derivatives, drugs containing said derivatives and the use thereof” (AbbVie Deutschland GmbH & Co. KG, priority 2005, dated 2014).
